Reference: patent publication US12173018B2, “Penicillin-binding protein inhibitors” (priority 2018, dated 2024)
Like-named read-outs stand apart in the source and are kept apart here.

How the values were obtained:
[1] = test system: E. coli ATCC 25922; test: Broth microdilution MIC, E. coli ATCC 25922; assay type: cell-based; conditions: Escherichia coli
Experimental: (§1) To determine the ability of test compounds to potentiate the inhibition of the growth of bacterial strains, classic cell based broth microdilution minimum inhibitory concentration (MIC) assays were employed. MIC assays are performed according to CLSI methods except where otherwise noted (CLSI, 2011 and CLSI, 2009). The reference type strain E. coli ATCC 25922, the wild-type parent strain E. coli AG100, the hyper-permeable E. coli 901C and E. coli D22 and the E. coli AG100A strain lacking the acrAB efflux pump encoding genes were used to determine the ability of the PBP inhibitors to penetrate the outer membrane of gram-negative bacteria and inhibit bacterial growth. […] The P. aeruginosa PAO1, P. aeruginosa ATCC 27853 and A. baumannii ATCC 19606, along with the hyper-permeable P. aeruginosa ATCC 35151 and an engineered efflux pump-compromised strain of P. aeruginosa (ΔmexAB-oprM) were used to determine the ability of PBP inhibitors to penetrate the outer membrane of P. aeruginosa and A. baumannii and assess antibacterial activity against these important gram-negative organisms.
(§2) Briefly, cryo-preserved bacterial cultures of challenge strains are streaked for isolation on appropriate agar medium, in this case Mueller Hinton II agar. Following incubation to allow growth of the colonies, plates are sealed with parafilm and stored refrigerated for up to two weeks. For preparation of assay inoculum and to ensure low variability, at least 5 colonies are picked from the agar plates with an inoculating loop and aseptically transferred to a culture tube containing 3 mL of Mueller-Hinton Broth (supplemented with divalent cations to required levels based on Manufacturers' certification). The broth culture is grown for 3-5 hours at 37° C. with shaking at 200 rpm. Meanwhile, 2-fold serial dilutions of test compounds are conducted in a 96 well plate with a final volume of 75 μL per well at 2-fold the final desired concentration. After the dilution plates are set up the growing cultures are then diluted in a cuvette containing MH II broth and the optical density is measured at 600 nm. The Inoculum is diluted such that 75 μL of this culture in Mueller-Hinton Broth results in a starting bacterial concentration of 5×10^5 CFU/mL when added to the dilution plates. The plates are incubated for 16-20 hours at 37° C. The MIC values are read visually as the lowest concentration well with no bacterial growth.

[2] = test system: E. coli AG100; test: Broth microdilution MIC, E. coli AG100 (wild-type parent); assay type: cell-based; conditions: Escherichia coli; wild-type parent E. coli AG100, broth microdilution; read-out: MIC E. coli AG100
Experimental: To determine the ability of test compounds to potentiate the inhibition of the growth of bacterial strains, classic cell based broth microdilution minimum inhibitory concentration (MIC) assays were employed.
as §2

[3] = test system: E. coli 901C; test: microbe, parasite or virus in culture; assay type: cell-based; conditions: Escherichia coli; hyper-permeable E. coli 901C, broth microdilution; read-out: MIC E. coli 901C
Experimental: as §1, §2

[4] = test system: E. coli AG100A; test: microbe, parasite or virus in culture; assay type: cell-based; conditions: Escherichia coli, read-out: MIC E. coli AG100A
Experimental: as §1, §2

[5] = test system: K. pneumoniae UMM; test: microbe, parasite or virus in culture; assay type: cell-based; conditions: Klebsiella pneumoniae; K. pneumoniae UMM producing SHV-5 and KPC-2; read-out: MIC K. pneumoniae UMM
Experimental: as §1, §2

[6] = test system: K. pneumoniae SI-117; test: microbe, parasite or virus in culture; assay type: cell-based; conditions: Klebsiella pneumoniae, SI117, read-out: MIC K. pneumoniae SI-117
Experimental: as §1, §2

[7] = molecular target: E. coli PBP3 (Escherichia coli (strain K12), UniProt P0AD68); test: E. coli PBP3 Bocillin-FL fluorescence polarization competition binding assay
Text: To determine the ability of boronic acid-based test PBP inhibitors to bind Penicillin Binding Proteins (PBPs), Bocillin-FL (fluorescently-labeled penicillin V; ThermoFisher Scientific) was used in a fluorescence polarization (FP) competition binding assay to assess inhibitor binding to PBP2, PBP3 or PBP4 from Escherichia coli. PBPs were cloned and purified as described previously (King, D. T, et al., ACS Infectious Diseases 2015, 1, 175-184). To establish assay conditions for competition binding, an enzyme titration/saturation binding experiment was initially performed. Bocillin-FL was prepared at 0.2 μM in a buffer comprised of 50 mM Hepes (pH 8.0), 300 mM NaCl and 5% (v/v) glycerol. Saturation binding was performed by mixing 40 μl of PBP solutions ranging in concentrations from 0-12 μM with 40 μl of the 0.2 μM Bocillin-FL solution, in individual wells of a black 384-well microplate. FP was measured immediately upon mixing (Excitation, 490 nm; Emission, 520 nm; g-factor, 0.96), using a Cytation3 (BioTek) microplate reader and measured continuously for up to 120 minutes. […] Assays (80 μl final volume) were performed with PBPs at a final concentration of 1.5 μM, Bocillin-FL at 0.1 μM and beta-lactam concentrations that ranged from 0-1000 μM. […] Bocillin-FL was added and the FP immediately measured for 60 minutes (90 minutes for PBP2). The beta-lactam potency was reported as the concentration of beta-lactam required to reduce binding of Bocillin-FL by […] (EC50). […] Binding assays for boronic acid PBP inhibitors were performed in an identical fashion.

[8] = test system: E. coli D22; test: microbe, parasite or virus in culture; assay type: cell-based; conditions: Escherichia coli; hyper-permeable E. coli D22, broth microdilution; read-out: MIC E. coli D22
Experimental: as §1, §2

[9] = test system: K. pneumoniae 848844; test: microbe, parasite or virus in culture; assay type: cell-based, Klebsiella pneumoniae; conditions: Klebsiella pneumoniae; K. pneumoniae 848844 producing SHV-11 and KPC-2; read-out: MIC K. pneumoniae 848844
Experimental: as §1, §2

[10] = ATCC25922, read-out: MIC E. coli 25922
[11] = ATCC25922, E. coli ATCC 25922, broth microdilution, read-out: MIC E. coli 25922

Sequence of E. coli PBP3 (P0AD68 whole entry): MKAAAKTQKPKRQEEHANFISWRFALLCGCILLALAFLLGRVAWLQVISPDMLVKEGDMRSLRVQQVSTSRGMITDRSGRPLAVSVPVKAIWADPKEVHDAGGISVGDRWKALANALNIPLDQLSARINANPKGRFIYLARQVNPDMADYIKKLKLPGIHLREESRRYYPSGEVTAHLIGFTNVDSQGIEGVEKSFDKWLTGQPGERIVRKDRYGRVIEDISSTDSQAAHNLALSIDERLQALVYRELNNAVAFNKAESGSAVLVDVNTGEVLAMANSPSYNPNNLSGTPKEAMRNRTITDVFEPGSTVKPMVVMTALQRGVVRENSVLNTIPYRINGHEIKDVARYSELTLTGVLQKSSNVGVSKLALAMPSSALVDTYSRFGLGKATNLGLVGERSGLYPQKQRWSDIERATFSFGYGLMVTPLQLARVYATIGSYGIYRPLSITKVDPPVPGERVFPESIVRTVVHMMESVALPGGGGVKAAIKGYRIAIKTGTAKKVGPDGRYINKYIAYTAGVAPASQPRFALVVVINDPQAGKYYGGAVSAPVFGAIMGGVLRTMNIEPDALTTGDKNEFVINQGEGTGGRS

SMILES	MIC [1, 10]	MIC [2]	MIC [3]	MIC [4]	MIC [5]	MIC [6]	EC50 ([7]; fluorescence polarization competition binding with Bocillin-FL, read-out: E. coli K12 PBP3 Potency)	MIC [1, 11]	MIC [8]	MIC [9]	EC50 [7]
CCNC(=O)NC(C(=O)N[C@H]1Cc2cccc(C(=O)O)c2OB1O)c1csc(N)n1 (stereo partly drawn) [Example 6, (3R)-3-(2-(2-aminothiazol-4-yl)-2-(3-ethylureido)acetamido)-2-hydroxy-3,4-dihydro-2H-benzo[e][1,2]oxaborinine-8-carboxylic acid]	> 128 µg/mL	> 128 µg/mL	8 to 16 µg/mL	8 to 16 µg/mL	> 128 µg/mL	–	–	–	–	–	–
Nc1nc(C(NS(=O)(=O)c2cccnc2)C(=O)N[C@H]2Cc3cccc(C(=O)O)c3OB2O)cs1 (stereo partly drawn) [Example 7, (3R)-3-(2-(2-aminothiazol-4-yl)-2-(pyridine-3-sulfonamido)acetamido)-2-hydroxy-3,4-dihydro-2H-benzo[e][1,2]oxaborinine-8-carboxylic acid]	> 128 µg/mL	> 128 µg/mL	8 to 16 µg/mL	32 to 64 µg/mL	> 128 µg/mL	–	–	–	–	–	–
CCN1CCN(C(=O)N[C@@H](C)C(=O)N[C@H]2Cc3cccc(C(=O)O)c3OB2O)C(=O)C1=O [Example 8, (R)-3-((S)-2-(4-Ethyl-2,3-dioxopiperazine-1-carboxamido)propanamido)-2-hydroxy-3,4-dihydro-2H-benzo[e][1,2]oxaborinine-8-carboxylic acid]	> 128 µg/mL	> 128 µg/mL	> 128 µg/mL	> 128 µg/mL	> 128 µg/mL	> 128 µg/mL	–	–	–	–	–
CCCN1CCN(C(=O)NC(C(=O)N[C@H]2Cc3cccc(C(=O)O)c3OB2O)c2ccc(O)cn2)C(=O)C1=O (stereo partly drawn) [Example 134, (3R)-3-(2-(2,3-dioxo-4-propylpiperazine-1-carboxamido)-2-(5-hydroxypyridin-2-yl)acetamido)-2-hydroxy-3,4-dihydro-2H-benzo[e][1,2]oxaborinine-8-carboxylic acid]	–	32 to 64 µg/mL	2 to 4 µg/mL	8 to 16 µg/mL	32 to 64 µg/mL	32 to 64 µg/mL	< 30 µM	32 to 64 µg/mL	8 to 16 µg/mL	32 to 64 µg/mL	–
CCN1CCN(C(=O)NC(C(=O)N[C@H]2Cc3cccc(C(=O)O)c3OB2O)c2ccc(O)c(O)n2)C(=O)C1=O (stereo partly drawn) [Example 140, (3R)-3-(2-(5,6-dihydroxypyridin-2-yl)-2-(4-ethyl-2,3-dioxopiperazine-1-carboxamido)acetamido)-2-hydroxy-3,4-dihydro-2H-benzo[e][1,2]oxaborinine-8-carboxylic acid]	–	32 to 64 µg/mL	0.5 to 1 µg/mL	2 to 4 µg/mL	8 to 16 µg/mL	32 to 64 µg/mL	–	8 to 16 µg/mL	2 to 4 µg/mL	32 to 64 µg/mL	30 to 500 µM
CCN1CCN(C(=O)NC(C(=O)N[C@H]2Cc3ccc(F)c(C(=O)O)c3OB2O)c2cccnc2)C(=O)C1=O (stereo partly drawn) [Example 141, (3R)-3-(2-(4-ethyl-2,3-dioxopiperazine-1-carboxamido)-2-(pyridin-3-yl)acetamido)-7-fluoro-2-hydroxy-3,4-dihydro-2H-benzo[e][1,2]oxaborinine-8-carboxylic acid]	–	> 128 µg/mL	2 to 4 µg/mL	32 to 64 µg/mL	32 to 64 µg/mL	> 128 µg/mL	–	> 128 µg/mL	8 to 16 µg/mL	> 128 µg/mL	30 to 500 µM
CCN1CCN(C(=O)NC(C(=O)N[C@H]2Cc3cccc(C(=O)O)c3OB2O)c2ccc(O)c(S(N)(=O)=O)c2)C(=O)C1=O (stereo partly drawn) [Example 143, (3R)-3-(2-(4-ethyl-2,3-dioxopiperazine-1-carboxamido)-2-(4-hydroxy-3-sulfamoylphenyl)acetamido)-2-hydroxy-3,4-dihydro-2H-benzo[e][1,2]oxaborinine-8-carboxylic acid]	–	32 to 64 µg/mL	< 0.25 µg/mL	2 to 4 µg/mL	32 to 64 µg/mL	> 128 µg/mL	–	32 to 64 µg/mL	2 to 4 µg/mL	> 128 µg/mL	–
CCN1CCN(C(=O)NC(C(=O)N[C@H]2Cc3cccc(C(=O)O)c3OB2O)c2ccc(OC)c(S(N)(=O)=O)c2)C(=O)C1=O (stereo partly drawn) [Example 144, (3R)-3-(2-(4-ethyl-2,3-dioxopiperazine-1-carboxamido)-2-(4-methoxy-3-sulfamoylphenyl)acetamido)-2-hydroxy-3,4-dihydro-2H-benzo[e][1,2]oxaborinine-8-carboxylic acid]	–	8 to 16 µg/mL	0.5 to 1 µg/mL	8 to 16 µg/mL	32 to 64 µg/mL	> 128 µg/mL	–	> 128 µg/mL	8 to 16 µg/mL	> 128 µg/mL	30 to 500 µM
CCN1CCN(C(=O)N[C@H](C(=O)N[C@H]2Cc3cccc(C(=O)O)c3OB2O)c2ccc(O)c(F)c2)C(=O)C1=O [Example 155, (R)-3-((S)-2-(4-ethyl-2,3-dioxopiperazine-1-carboxamido)-2-(3-fluoro-4-hydroxyphenyl)acetamido)-2-hydroxy-3,4-dihydro-2H-benzo[e][1,2]oxaborinine-8-carboxylic acid]	–	> 128 µg/mL	0.5 to 1 µg/mL	8 to 16 µg/mL	> 128 µg/mL	> 128 µg/mL	–	> 128 µg/mL	8 to 16 µg/mL	> 128 µg/mL	30 to 500 µM
CCN1CCN(C(=O)NC(C(=O)N[C@H]2Cc3cccc(C(=O)O)c3OB2O)c2ncccc2F)C(=O)C1=O (stereo partly drawn) [Example 162, (3R)-3-(2-(4-ethyl-2,3-dioxopiperazine-1-carboxamido)-2-(3-fluoropyridin-2-yl)acetamido)-2-hydroxy-3,4-dihydro-2H-benzo[e][1,2]oxaborinine-8-carboxylic acid]	–	32 to 64 µg/mL	0.5 to 1 µg/mL	2 to 4 µg/mL	32 to 64 µg/mL	32 to 64 µg/mL	–	32 to 64 µg/mL	8 to 16 µg/mL	> 128 µg/mL	30 to 500 µM
CCN1CCN(C(=O)NC(C(=O)N[C@H]2Cc3cccc(C(=O)O)c3OB2O)c2ncc(C(=O)NCCO)cc2F)C(=O)C1=O (stereo partly drawn) [Example 241, (3R)-3-(2-(4-ethyl-2,3-dioxopiperazine-1-carboxamido)-2-(3-fluoro-5-((2-hydroxyethyl)carbamoyl)pyridin-2-yl)acetamido)-2-hydroxy-3,4-dihydro-2H-benzo[e][1,2]oxaborinine-8-carboxylic acid]	> 128 µg/mL	> 128 µg/mL	0.5 to 1 µg/mL	8 to 16 µg/mL	> 128 µg/mL	> 128 µg/mL	–	–	8 to 16 µg/mL	> 128 µg/mL	–
